Experimental data: patent publication US11266643B2, “Triaryl compounds for treatment of PD-L1 diseases” (CHEMOCENTRYX, INC., priority 2019, dated 2022)
pIC50: −log10 of the molar value.

Molecular target: human PD-L1 (Homo sapiens (Human), UniProt Q9NZQ7)
Test: Enzyme-Linked Immunosorbent Assay (ELISA), PD-1/PD-L1 binding
How it was run: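 Plates coated with […] human PD-L1 overnight at 4° C, blocked, then 1:5 serial compound dilutions added with human PD-1 […] 0.31 μg/mL for 1 h at 37° C. Bound PD-1 detected with streptavidin-HRP and TMB (20 min, 37° C); absorbance read at 450 nm after H2SO4 stop.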

[1] = human PD-1/PD-L1 ELISA, plates coated with human PD-L1
[2] = PD-1/PD-L1 ELISA, human PD-L1 coated plates, Table 1
[3] = plate-coated human PD-L1, biotinylated Human PD-1, absorbance at 450 nm

Chain of human PD-L1 (Q9NZQ7 19-239): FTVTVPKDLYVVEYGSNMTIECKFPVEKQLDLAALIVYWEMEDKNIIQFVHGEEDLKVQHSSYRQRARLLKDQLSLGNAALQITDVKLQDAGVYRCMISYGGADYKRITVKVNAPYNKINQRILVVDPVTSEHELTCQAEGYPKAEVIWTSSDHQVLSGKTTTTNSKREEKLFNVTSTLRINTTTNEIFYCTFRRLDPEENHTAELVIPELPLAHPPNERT

pIC50 [1]	pIC50 [2]	Structure (SMILES)	other results
> 8.00		COc1cc(-c2cccc(-c3cccc(NC(=O)c4c[nH]c(=O)n(C)c4=O)c3C)c2C)cc(F)c1CN[C@H]1COC[C@@H]1O [Example 1.079]	
	6.00 to 8.00	COc1cc(-c2cccc(-c3cccc(NC(=O)[C@H]4COCCN4)c3C)c2C)cc(F)c1CN [Example 1.319]	
> 8.00		COc1cc(-c2cccc(-c3cccc(NC(=O)c4cn(C)c(=O)n(C)c4=O)c3C)c2C)cc(F)c1CN[C@@H]1COC[C@H]1O [Example 1.057]	
	6.00 to 8.00	COc1cc(-c2cccc(-c3cccc(NC(=O)c4cnc(C)[nH]c4=O)c3C)c2C)cc(F)c1CN1CC(C(=O)O)C1 [Example 1.272]	
	6.00 to 8.00	COc1cc(-c2cccc(-c3cccc(NC(=O)c4c[nH]c(=O)n(C)c4=O)c3C)c2C)cc(F)c1CNC1COC1 [Example 1.216]	
> 8.00		COc1cc(-c2cccc(-c3cccc(NC(=O)c4c[nH]c(=O)n(C)c4=O)c3C)c2C)cc(F)c1CNC1CCOCC1 [Example 1.053]	
	5.00 to 6.00	COc1cc(-c2cccc(-c3cccc(NC(=O)c4ccc(N)nc4)c3C)c2C)cc(F)c1CNCCO [Example 1.390]	
	> 8.00	COc1cc(-c2cccc(-c3cccc(NC(=O)c4cnccn4)c3C)c2C)cc(F)c1CN1CC(C(=O)O)C1 [Example 1.357]	
	6.00 to 8.00	COc1cc(-c2cccc(-c3cccc(NC(=O)c4ccccn4)c3C)c2C)cc(F)c1CN1CCC[C@@H](C(=O)O)C1 [Example 1.354]	
	> 8.00	COc1cc(-c2cccc(-c3cccc(NC(=O)c4ccnc(C)n4)c3C)c2C)cc(F)c1CN1CC(C(=O)O)C1 [Example 1.321]	
	6.00 to 8.00	COc1cc(-c2cccc(-c3cccc(NC(=O)C4CNCCO4)c3C)c2C)cc(F)c1CNCCO (stereo not drawn) [Example 1.324]	
> 8.00		COc1cc(-c2cccc(-c3cccc(NC(=O)c4c[nH]c(=O)n(C)c4=O)c3C)c2C)cc(F)c1CN[C@@H]1CCOC1 [Example 1.049]	
6.00 to 8.00		COc1cc(-c2cccc(-c3cccc(NC(=O)c4c[nH]c(=O)n(C)c4=O)c3C)c2C)cc(F)c1CN(C)[C@@H]1CNC(=O)C1 [Example 1.073]	
> 8.00		COc1cc(-c2cccc(-c3cccc(NC(=O)c4cn(C)c(=O)n(C)c4=O)c3C)c2C)cc(F)c1CN[C@@H]1COCC[C@H]1O [Example 1.002]	
	> 8.00	COc1cc(-c2cccc(-c3cccc(NC(=O)c4cncn(C)c4=O)c3C)c2C)cc(F)c1CNC1CCCC1 [Example 1.198]	
	6.00 to 8.00	COc1cc(-c2cccc(-c3cccc(NC(=O)c4ccnc(N)n4)c3C)c2C)cc(F)c1CN1CC(C(=O)O)C1 [Example 1.347]	
	6.00 to 8.00	COc1cc(-c2cccc(-c3cccc(NC(=O)C4CCCO4)c3C)c2C)cc(F)c1CN1CC(C(=O)O)C1 (stereo not drawn) [Example 1.341]	
	6.00 to 8.00	COc1cc(-c2cccc(-c3cccc(NC(=O)C4CNCCO4)c3C)c2C)cc(F)c1CN (stereo not drawn) [Example 1.323]	

More lines, now with the values behind:

Structure (SMILES)	pIC50 [1]	pIC50 [2]	other results
COc1cc(-c2cccc(-c3cccc(NC(=O)c4c[nH]c(=O)n(C)c4=O)c3C)c2C)cc(F)c1CNCCC1CCC(=O)N1 (stereo not drawn) [Example 1.141]	> 8.00		
COc1cc(-c2cccc(-c3cccc(NC(=O)c4nc5c(s4)CN(CCO)CC5)c3F)c2C)cc(F)c1CNCCO [Example 1.400]	> 8.00		
COc1cc(-c2cccc(-c3cccc(NC(=O)c4cn(C)c(=O)n(C)c4=O)c3C)c2Cl)cc(F)c1CN[C@H]1CCC(=O)NC1 [Example 1.018]	> 8.00		
COc1cc(-c2cccc(-c3cccc(NC(=O)c4cn(C)c(=O)n(C)c4=O)c3C)c2Cl)cc(F)c1CNCC(C)(C)O [Example 2.045]			pIC50 [3]: > 8.00
COc1cc(-c2cccc(-c3cccc(NC(=O)c4cn(C)c(=O)n(C)c4=O)c3C)c2Cl)cnc1CN[C@@H]1CCOC[C@@H]1O [Example 2.049]			pIC50 [3]: > 8.00
COc1cc(-c2cccc(-c3cccc(NC(=O)c4cncn(C)c4=O)c3C)c2C)cc(F)c1CN(C)[C@@H]1CNC(=O)C1 [Example 1.084]	6.00 to 8.00		
COc1cc(-c2cccc(-c3cccc(NC(=O)c4cccn(C)c4=O)c3C)c2C)cc(F)c1CN[C@@H]1CCC[C@H]1O [Example 1.117]	> 8.00		
COc1cc(-c2cccc(-c3cccc(NC(=O)c4cncn(C)c4=O)c3C)c2C)cc(F)c1CNCCC(N)=O [Example 1.091]	> 8.00		
COc1cc(-c2cccc(-c3cccc(NC(=O)c4cncn(C)c4=O)c3C)c2C)cc(F)c1CNCCS(=O)(=O)O [Example 1.260]		> 8.00	
COc1cc(-c2cccc(-c3cccc(NC(=O)c4cn(C)c(=O)n(C)c4=O)c3C)c2Cl)cc(F)c1CN[C@H]1CCOC[C@@H]1O [Example 2.089]			pIC50 [3]: > 8.00
COc1cc(-c2cccc(-c3cccc(Nc4nccc5nccnc45)c3C)c2C)cc(F)c1CN[C@H]1CNC(=O)C1 [Example 1.153]	> 8.00		
COc1cc(-c2cccc(-c3cccc(NC(=O)C4=CNCN(C)C4=O)c3C)c2C)cc(F)c1CNC[C@@H]1CCC(=O)N1C [Example 1.194]	6.00 to 8.00		
COc1cc(-c2cccc(-c3cccc(NC(=O)c4nn(C)c(=O)n(C)c4=O)c3C)c2C)cc(F)c1CN(C)C[C@@H]1CCC(=O)N1 [Example 1.077]	> 8.00		
COc1cc(-c2cccc(-c3cccc(NC(=O)c4cn(C)c(=O)n(C)c4=O)c3Cl)c2Cl)cc(F)c1CN[C@H]1CCOC[C@@H]1O [Example 2.082]			pIC50 [3]: > 8.00
COc1cc(-c2cccc(-c3cccc(NC(=O)c4cn(C)c(=O)n(C)c4=O)c3C)c2F)cc(F)c1CN[C@@H]1CNC(=O)C1 [Example 1.020]	> 8.00		
COc1cc(-c2cccc(-c3cccc(NC(=O)c4cn(C)c(=O)n(C)c4=O)c3Cl)c2C)cc(F)c1CN[C@H]1CCOC[C@@H]1O [Example 2.077]			pIC50 [3]: > 8.00
COc1cc(-c2cccc(-c3cccc(Nc4cccc5ccn(C)c(=O)c45)c3C)c2C)cc(F)c1CN1CC(C(=O)O)C1 [Example 1.284]		6.00 to 8.00	
COc1cc(-c2cccc(-c3cccc(Nc4nccc5nccnc45)c3C)c2C)cc(F)c1CNC[C@@H](C)O [Example 1.208]		> 8.00	
COc1cc(-c2cccc(-c3cccc(NC(=O)c4ccc(CNCCO)cn4)c3C)c2C)cc(F)c1CNCCO [Example 1.404]	> 8.00		
COc1cc(-c2cccc(-c3cccc(NC(=O)c4cn(C)c(=O)n(C)c4=O)c3C)c2Cl)ccc1CN[C@@H]1CCOC[C@@H]1O [Example 2.054]			pIC50 [3]: > 8.00
CNCc1c(F)cc(-c2cccc(-c3cccc(NC(=O)c4nc5c(s4)CN(CCO)CC5)c3F)c2C)cc1OC [Example 1.398]	> 8.00		

Structure (SMILES)	pIC50 [1]	pIC50 [2]	other results
COc1cc(-c2cccc(-c3cccc(NC(=O)c4cn(C)c(=O)n(C)c4=O)c3Cl)c2C)cc(F)c1CN[C@@H]1CCC(=O)NC1 [Example 1.009]	> 8.00		
COc1cc(-c2cccc(-c3cccc(NC(=O)c4c[nH]c(=O)n(C)c4=O)c3Cl)c2Cl)cc(F)c1CN[C@H]1CCC(=O)NC1 [Example 2.027]			pIC50 [3]: > 8.00
COc1cc(-c2cccc(-c3cccc(NC(=O)c4cn(C)c(=O)n(C)c4=O)c3C)c2Cl)cc(F)c1CN1CCCC[C@H]1C(=O)O [Example 2.047]			pIC50 [3]: > 8.00
COc1cc(-c2cccc(-c3cccc(NC(=O)c4cn(C)c(=O)n(C)c4=O)c3C)c2Cl)cc(F)c1CN[C@@H]1COC[C@H]1O [Example 2.090]			pIC50 [3]: > 8.00
COc1cc(-c2cccc(-c3cccc(Nc4nccc5nccnc45)c3C)c2C)cc(F)c1CN[C@@H]1CCC[C@@H]1O [Example 1.180]	> 8.00		
COc1cc(-c2cccc(-c3cccc(NC(=O)c4cccn(C)c4=O)c3C)c2C)cc(F)c1CN(C)[C@@H]1CNC(=O)C1 [Example 1.074]	6.00 to 8.00		
COc1cc(-c2cccc(-c3cccc(NC(=O)c4nn(C)c(=O)n(C)c4=O)c3C)c2C)cc(F)c1CN[C@H]1CNC(=O)C1 [Example 1.070]	> 8.00		
COc1cc(-c2cccc(-c3cccc(NC(=O)c4cn(C)c(=O)n(C)c4=O)c3C)c2Cl)cc(F)c1CNCC1(O)CC1 [Example 2.056]			pIC50 [3]: > 8.00
COc1cc(-c2cccc(-c3cccc(Nc4ncnc5cccnc45)c3C)c2C)cc(F)c1CN1CC(C(=O)O)C1 [Example 1.243]		5.00 to 6.00	
COc1cc(-c2cccc(-c3cccc(NC(=O)c4c[nH]c(=O)n(C)c4=O)c3C)c2C)cc(F)c1CNCc1ncc[nH]1 [Example 1.119]	6.00 to 8.00		
COc1cc(-c2cccc(-c3cccc(NC(=O)c4cn(C)c(=O)n(C)c4=O)c3Cl)c2Cl)cc(F)c1CN[C@@H]1COC[C@@H]1O [Example 2.073]			pIC50 [3]: > 8.00
COc1cc(-c2cccc(-c3cccc(NC(=O)c4cn(C)c(=O)n(C)c4=O)c3C)c2C)cc(F)c1CNC[C@@H]1CCC(=O)N1 [Example 1.187]	> 8.00		
COc1cc(-c2cccc(-c3cccc(NC(=O)c4c[nH]c(=O)n(C)c4=O)c3C)c2C)cc(F)c1CNCC[C@@H]1CCC(=O)N1 [Example 1.109]	> 8.00		
COc1cc(-c2cccc(-c3cccc(Nc4nccc5c4C(=O)N(C)CC5)c3C)c2C)cc(F)c1CN(C)C[C@@H]1CCC(=O)N1 [Example 1.192]	6.00 to 8.00		
COc1cc(-c2cccc(-c3cccc(NC(=O)c4cccn(C)c4=O)c3C)c2C)cc(F)c1CNCCC(=O)O [Example 1.282]		> 8.00	
COc1cc(-c2cccc(-c3cccc(NC(=O)c4c[nH]c(=O)n(C)c4=O)c3C)c2Cl)cc(F)c1CN[C@@H]1CCOC[C@@H]1O [Example 2.035]			pIC50 [3]: > 8.00
COc1cc(-c2cccc(-c3cccc(NC(=O)c4cn(C)c(=O)n(C)c4=O)c3C)c2C)cc(F)c1CNCCO [Example 1.179]	> 8.00		
COc1cc(-c2cccc(-c3cccc(NC(=O)c4c[nH]c(=O)n(C)c4=O)c3Cl)c2Cl)cc(F)c1CN[C@@H]1CCOC[C@@H]1O [Example 2.030]			pIC50 [3]: > 8.00
COc1cc(-c2cccc(-c3cccc(Nc4cccc5cncnc45)c3C)c2C)cc(F)c1CN1CC(C(=O)O)C1 [Example 1.246]		6.00 to 8.00	
COc1cc(-c2cccc(-c3cccc(NC(=O)c4cn(C)c(=O)n(C)c4=O)c3Cl)c2Cl)cc(F)c1CN[C@H]1CNC(=O)C1 [Example 2.081]			pIC50 [3]: > 8.00
COc1cc(-c2cccc(-c3cccc(NC(=O)c4cn(C)c(=O)n(C)c4=O)c3C)c2Cl)cc(F)c1CNCC(C)(C)C(N)=O [Example 1.034]	> 8.00		
